Tests used:
Kininogen = experiment: Effect on kininogen expression in rat heart (2-DE gels, silver staining, MALDI-TOF); type: in vivo, Rattus novergicus; details: levosimendan orally 20 mg/l in tab water for eight days
Experimental: Rats were given levosimendan orally 20 mg/l in tab water and controls only tab water for eight days. Hearts were frozen in liquid nitrogen and stored at −80° C. The heart tissues were lyophilized on ice over night and incubated in lysis buffer; 9 M urea, 20 mM Tris-HCl pH 7.4, 50 mM KCl, 3 mM EDTA pH 7.5, 0.5% IPG buffer 3-10 NL, 5 mM PMSF, 1% DTT and Benzoase 100 Units for 10 min at room temperature. The protein solution was then sonicated 2×15 s and centrifuged at 14000 rpm for 5 min. The supernatants were collected and the protein amount measured based on the protein assay kit from BioRad. 40 μg protein solution was diluted in 350 μl of rehydration buffer; 7 M urea, 2 M thiourea, 2 mM TBP, 0.5% IPG buffer 3-10 NL, 4% CHAPS and 0.2% BFB, incubated for 30 min at room temperature and centrifuged for 5 min at 14000 rpm. […]
The focused strips were equilibrated in the following buffer: 6 M urea, 50 mM Tris-HCl, pH 8.8, 2% SDS, 30% glycerol, 2% DTT, 2.5% iodoacetamide and 0.2% BFB 2×10 min at room temperature. […] The silver stained gels were analyzed by PD-QUEST(6.2) 2-DE software (BIO-RAD). […]
All samples were prepared by reversed phase pipette tips C18 (ZipTip, Millipore). […] The samples were analyzed in a TOF mass spectrometer (Voyager-DE PRO). […] The masses of the obtained peptides were analysed by the MS-fit program on the Expasy Molecular Biology server PeptIdent.

[1] = system: Dahl SS rats on high-salt diet; experiment: Seven-point Neuroscore test, Dahl salt-sensitive rat stroke model; type: in vivo; details: throughout the study (weeks 1-8); grade 6 = normal
Experimental: (§1) Dahl SS rats were divided into three treatment groups: High-Salt diet+vehicle (n=20), High-Salt diet+Levosimendan 1 mg/kg/day (n=20), and Normal-Salt diet control (n=4). High salt diet contained 7% of NaCl in commercial low salt diet. Feeding with the high-salt diet was started at the age of 6 weeks and continued 7 weeks until the end of the study. Levosimendan was administered via drinking water (2 mg/l of levosimendan in drinking water). The administration was started at the same time as the high-salt diet and continued until the end of the study. The consumption of drinking water and food as well as the body weight and general health of the animals were monitored. MRI was performed once-a-week during the weeks 2-8. FOB and 7-point Neuroscore testing were performed once-a-week during the weeks 1-3 and twice-a-week during weeks the 4-8.
Functional observational battery (FOB) and Neuroscore testing were performed once-a-week during weeks 1-3 and twice-a-week during weeks 4-8.
A seven-point neuroscore test was used to assess motor and behavioral deficits (modified from Zausinger et al. Brain Res. 863:94-105, 2000). The neurological test was conducted by an investigator blinded to the treatment status of the rats. The seven-point scale was as follows:
Grade 6: Normal extension of both forelimbs towards the floor when lifted gently by the tail. […]

[2] = system: Dahl SS rats on high-salt diet; experiment: In vivo T2-weighted MRI of brain lesions, Dahl salt-sensitive rat stroke model; details: for share of animals with T2-lesion volume 0 mm^3 / share of animals with T2-lesion volume 1-50 mm^3 / share of animals with T2-lesion volume 51-100 mm^3 / share of animals with T2-lesion volume >200 mm^3: in vivo MRI
Experimental: Effect of levosimendan on the incidence of cerebral strokes in Dahl salt-sensitive rat stroke model was studied using Magnetic Resonance Imaging (MRI) and behavioural tests (Neuroscore and Functional Observational Battery (FOB)).
as §1
Diffusion and T2-weighted MRI using Varian Inova console interfaced to a 4.7 T horizontal magnet (Magnex Scientific Ltd.) was performed once-a-week on halothane-anesthetized rats. T2-weighted imaging and quantitative diffusion imaging were used to determine lesion size and to characterize plausible ischaemic lesions in Dahl SS rats. Typical lesions were heterogeneous and consisted of several different regions with different MRI characteristics. Hyperintensity in T2-weighted imaging was found in practically all animals with detectable abnormalities. This can be interpreted as oedematous tissue, which is typical for ischaemic tissue and is, in general, detectable starting at ˜12-24 h after occlusion of the feeding vessel. […] At the high magnetic field (4.7 T) used in this study, any ferromagnetic substance causes local disruption in magnetic field homogeneity which destroys the signal in T2-weighted imaging. This is a characteristic MRI feature for hemorrhage as haemoglobin in blood contains Fe. Thus almost all lesions detected in this study can be characterized to be associated with hemorrhage.

CC1CC(=O)NN=C1c1ccc(NN=C(C#N)C#N)cc1 (single isomer, unassigned; (-)) [levosimendan, (−)-enantiomer of [[4-(1,4,5,6-tetrahydro-4-methyl-6-oxo-3-pyridazinyl)phenyl]hydrazono]propanedinitrile]
kininogen protein expression in rat heart versus control (Kininogen): ten fold up-regulated
seven-point Neuroscore [1]: scored maximum scores throughout the study
noticeable T2-weighted MRI changes ([2]; 6th week of the study, more than 50% of vehicle treated animals had changes): no changes were observed
animals with detectable T2-weighted MRI changes ([2]; at the last MRI measurement, 85% of vehicle treated animals): 10%
share of animals with T2-lesion volume 0 mm^3 ([2]; week 2, lesion volume class 0 mm^3, levosimendan 1 mg/kg/day in drinking water): 95%
share of animals with T2-lesion volume 1-50 mm^3 ([2]; week 2, lesion volume class 1-50 mm^3, levosimendan 1 mg/kg/day in drinking water): 5%
share of animals with T2-lesion volume 51-100 mm^3 ([2]; week 2, lesion volume class 51-100 mm^3, levosimendan 1 mg/kg/day in drinking water): 0%
share of animals with T2-lesion volume >200 mm^3 ([2]; week 2, lesion volume class >200 mm^3, levosimendan 1 mg/kg/day in drinking water): 0%
share of animals with T2-lesion volume 0 mm^3 ([2]; week 3, lesion volume class 0 mm^3, levosimendan 1 mg/kg/day in drinking water): 100%
share of animals with T2-lesion volume 1-50 mm^3 ([2]; week 3, lesion volume class 1-50 mm^3, levosimendan 1 mg/kg/day in drinking water): 0%
share of animals with T2-lesion volume 51-100 mm^3 ([2]; week 3, lesion volume class 51-100 mm^3, levosimendan 1 mg/kg/day in drinking water): 0%
share of animals with T2-lesion volume >200 mm^3 ([2]; week 3, lesion volume class >200 mm^3, levosimendan 1 mg/kg/day in drinking water): 0%
share of animals with T2-lesion volume 0 mm^3 ([2]; week 4, lesion volume class 0 mm^3, levosimendan 1 mg/kg/day in drinking water): 95%
share of animals with T2-lesion volume 1-50 mm^3 ([2]; week 4, lesion volume class 1-50 mm^3, levosimendan 1 mg/kg/day in drinking water): 5%
share of animals with T2-lesion volume 51-100 mm^3 ([2]; week 4, lesion volume class 51-100 mm^3, levosimendan 1 mg/kg/day in drinking water): 0%
share of animals with T2-lesion volume >200 mm^3 ([2]; week 4, lesion volume class >200 mm^3, levosimendan 1 mg/kg/day in drinking water): 0%
share of animals with T2-lesion volume 0 mm^3 ([2]; week 5, lesion volume class 0 mm^3, levosimendan 1 mg/kg/day in drinking water): 100%
share of animals with T2-lesion volume 1-50 mm^3 ([2]; week 5, lesion volume class 1-50 mm^3, levosimendan 1 mg/kg/day in drinking water): 0%
share of animals with T2-lesion volume 51-100 mm^3 ([2]; week 5, lesion volume class 51-100 mm^3, levosimendan 1 mg/kg/day in drinking water): 0%
share of animals with T2-lesion volume >200 mm^3 ([2]; week 5, lesion volume class >200 mm^3, levosimendan 1 mg/kg/day in drinking water): 0%
share of animals with T2-lesion volume 0 mm^3 ([2]; week 6, lesion volume class 0 mm^3, levosimendan 1 mg/kg/day in drinking water): 100%
share of animals with T2-lesion volume 1-50 mm^3 ([2]; week 6, lesion volume class 1-50 mm^3, levosimendan 1 mg/kg/day in drinking water): 0%
share of animals with T2-lesion volume 51-100 mm^3 ([2]; week 6, lesion volume class 51-100 mm^3, levosimendan 1 mg/kg/day in drinking water): 0%
share of animals with T2-lesion volume >200 mm^3 ([2]; week 6, lesion volume class >200 mm^3, levosimendan 1 mg/kg/day in drinking water): 0%
share of animals with T2-lesion volume 0 mm^3 ([2]; week 7, lesion volume class 0 mm^3, levosimendan 1 mg/kg/day in drinking water): 90%
share of animals with T2-lesion volume 1-50 mm^3 ([2]; week 7, lesion volume class 1-50 mm^3, levosimendan 1 mg/kg/day in drinking water): 0%
share of animals with T2-lesion volume 51-100 mm^3 ([2]; week 7, lesion volume class 51-100 mm^3, levosimendan 1 mg/kg/day in drinking water): 10%
share of animals with T2-lesion volume >200 mm^3 ([2]; week 7, lesion volume class >200 mm^3, levosimendan 1 mg/kg/day in drinking water): 0%
share of animals with T2-lesion volume 0 mm^3 ([2]; week 8, lesion volume class 0 mm^3, levosimendan 1 mg/kg/day in drinking water): 89%
share of animals with T2-lesion volume 1-50 mm^3 ([2]; week 8, lesion volume class 1-50 mm^3, levosimendan 1 mg/kg/day in drinking water): 5%
share of animals with T2-lesion volume 51-100 mm^3 ([2]; week 8, lesion volume class 51-100 mm^3, levosimendan 1 mg/kg/day in drinking water): 0%
share of animals with T2-lesion volume >200 mm^3 ([2]; week 8, lesion volume class >200 mm^3, levosimendan 1 mg/kg/day in drinking water): 5%

From US8329693B2, “Method for the prevention of thromboembolic disorders” (Orion Corporation, priority 2004, dated 2012)
